Article PMC8645336, “Benchmarking a highly selective USP30 inhibitor for enhancement of mitophagy and pexophagy” (Life Science Alliance, 2021)

What was measured:
BAP1 = biological target: T1, BAP1 (Homo sapiens, UniProt Q92560); assay: biochemical; set-up: Ubiquigent DUB profiler selectivity panel, remaining enzyme activity as % of control; details: read-out: % of control remaining
T1 sequence (Q92560 1-729): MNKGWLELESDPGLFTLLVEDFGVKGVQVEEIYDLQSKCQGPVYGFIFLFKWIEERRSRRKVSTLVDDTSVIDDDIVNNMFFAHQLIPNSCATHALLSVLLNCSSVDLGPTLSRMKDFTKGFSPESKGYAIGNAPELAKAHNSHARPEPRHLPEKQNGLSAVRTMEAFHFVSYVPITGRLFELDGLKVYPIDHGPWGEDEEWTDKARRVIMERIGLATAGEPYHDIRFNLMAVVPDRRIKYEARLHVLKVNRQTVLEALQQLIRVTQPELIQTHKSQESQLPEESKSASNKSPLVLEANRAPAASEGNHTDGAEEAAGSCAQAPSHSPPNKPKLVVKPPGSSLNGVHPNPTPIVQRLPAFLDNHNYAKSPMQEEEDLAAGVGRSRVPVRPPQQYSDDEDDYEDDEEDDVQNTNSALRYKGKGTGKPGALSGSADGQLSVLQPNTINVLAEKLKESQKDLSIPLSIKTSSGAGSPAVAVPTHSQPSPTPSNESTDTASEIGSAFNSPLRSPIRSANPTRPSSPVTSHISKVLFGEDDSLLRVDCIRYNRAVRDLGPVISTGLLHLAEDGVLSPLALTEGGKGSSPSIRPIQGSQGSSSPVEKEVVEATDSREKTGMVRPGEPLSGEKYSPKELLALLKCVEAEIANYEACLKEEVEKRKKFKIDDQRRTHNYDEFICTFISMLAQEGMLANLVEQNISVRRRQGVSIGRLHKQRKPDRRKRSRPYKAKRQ
Procedure, shortened: (§1)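 In YFP-PRKN-overexpressing hTERT-RPE1 cells, 1 h antimycin A plus oligomycin A (1 μM each) with CMPD-39, then Western blot of TOMM20 ubiquitylation. Target engagement: 2 h compound, then 10 min HA-Ub-PA at 37°C, read as USP30 shift. DUB panel (>40 enzymes) screened at 1-100 μM.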

USP25 = biological target: T2, USP25 (Homo sapiens, UniProt Q9UHP3); assay: biochemical; set-up: Ubiquigent DUB profiler selectivity panel, remaining enzyme activity as % of control; details: read-out: % of control remaining
T2 sequence (Q9UHP3 1-1055): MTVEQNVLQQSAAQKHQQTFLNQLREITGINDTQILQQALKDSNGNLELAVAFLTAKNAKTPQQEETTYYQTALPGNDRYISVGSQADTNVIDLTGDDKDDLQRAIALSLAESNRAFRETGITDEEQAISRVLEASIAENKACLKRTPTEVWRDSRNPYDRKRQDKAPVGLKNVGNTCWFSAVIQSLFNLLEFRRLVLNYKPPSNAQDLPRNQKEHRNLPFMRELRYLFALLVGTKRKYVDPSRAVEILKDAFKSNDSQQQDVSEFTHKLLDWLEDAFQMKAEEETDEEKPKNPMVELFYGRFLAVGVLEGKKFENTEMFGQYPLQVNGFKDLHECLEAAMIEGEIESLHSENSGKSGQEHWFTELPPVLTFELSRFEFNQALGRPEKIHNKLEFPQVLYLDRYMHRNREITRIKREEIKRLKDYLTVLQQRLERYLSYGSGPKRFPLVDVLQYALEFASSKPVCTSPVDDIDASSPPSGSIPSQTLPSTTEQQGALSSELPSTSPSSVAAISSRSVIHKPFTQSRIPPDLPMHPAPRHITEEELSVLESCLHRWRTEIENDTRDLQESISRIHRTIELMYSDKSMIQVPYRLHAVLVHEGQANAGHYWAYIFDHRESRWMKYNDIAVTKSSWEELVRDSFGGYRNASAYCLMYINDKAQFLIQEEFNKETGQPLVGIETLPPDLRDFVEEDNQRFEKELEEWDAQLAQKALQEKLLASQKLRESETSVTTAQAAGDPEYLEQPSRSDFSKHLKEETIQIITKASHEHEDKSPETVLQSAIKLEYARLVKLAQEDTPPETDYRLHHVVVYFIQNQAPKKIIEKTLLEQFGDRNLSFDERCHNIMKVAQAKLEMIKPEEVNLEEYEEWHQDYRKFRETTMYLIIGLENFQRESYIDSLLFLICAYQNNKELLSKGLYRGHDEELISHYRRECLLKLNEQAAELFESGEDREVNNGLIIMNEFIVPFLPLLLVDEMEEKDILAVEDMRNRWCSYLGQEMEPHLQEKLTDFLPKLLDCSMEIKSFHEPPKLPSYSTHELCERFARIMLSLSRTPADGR
Procedure, shortened: as §1

remaining activity at 1 µM (BAP1): 104% | remaining activity at 10 µM (BAP1): 89% | remaining activity at 100 µM (BAP1): 96.5% | remaining activity at 1 µM (USP25): 103% | remaining activity at 10 µM (USP25): 94.5% | remaining activity at 100 µM (USP25): 103%
SMILES: CC(C)(C)NS(=O)(=O)c1ccc(NC(=O)[C@H](Cc2ccccc2)NC(=O)c2ccc(F)cc2)cc1 [compound 39, CMPD-39]
